Laboratory results as given in patent US3989466.

What was measured:
[1] = not told
[2] = not told for nicotinamide; caffeine D in same system by direct partitioning in a separatory funnel with UV absorbance

| SMILES | partition coefficient (concentration ratio) [1] | partition coefficient (concentration ratio) [2] |
| --- | --- | --- |
| Oc1ccc(N=Nc2ccccc2)cc1 | ca. 0.50 concentration ratio (mg/ml per mg/ml) |  |
| CC1(C)Nc2cccc3c(N=Nc4ccc(N=Nc5ccccc5)c5ccccc45)ccc(c23)N1 | ca. 2.0 concentration ratio (mg/ml per mg/ml) |  |
| NC(=O)c1cccnc1 |  | 0.19 concentration ratio (mg/ml per mg/ml) |
